# Read-outs that look alike come from different tables or passages of the source.
# Assays:
# wild type B.1 SARS-CoV-2 = assay type: cell-based
# in vitro = details: monkey
# [1] = DAA, concentration causing 10% cytotoxicity
compound,measurement,setting,value
tixagevimab,CC10 Mean ± SD,VERO E6 cells; mAb,>0.36 µg/mL
same,CC50 Mean ± SD,VERO E6 cells; mAb,>0.36 µg/mL
same,IC90 vs. B.1 Mean ± SD,wild type B.1 SARS-CoV-2,0.305 ± 0.071 µg/mL
"O=c1nc(NO)ccn1[C@@H]1O[C@H](CO)[C@@H](O)[C@H]1O [EIDD-1931, reference compound]",CC10 Mean ± SD,VERO E6 cells; [1],3.1 ± 0.4 µM
same,CC50,"VERO E6 cells; read-out: CC50 Mean ± SD, DAA",43.3 ± 6 µM
same,IC50,wild type B.1 SARS-CoV-2; read-out: IC50 vs. B.1 Mean ± SD,2.4 ± 0.4 µM
same,IC90,wild type B.1 SARS-CoV-2; read-out: IC90 vs. B.1 Mean ± SD,2.5 ± 0.1 µM
bebtelovimab,CC10 Mean ± SD,VERO E6 cells; mAb,>0.06 µg/mL
same,CC50 Mean ± SD,VERO E6 cells; mAb,>0.06 µg/mL
same,IC90 vs. B.1 Mean ± SD,wild type B.1 SARS-CoV-2,0.089 ± 0.009 µg/mL
"CCC(CC)COC(=O)[C@H](C)N[P@](=O)(OC[C@H]1O[C@@](C#N)(c2ccc3c(N)ncnn23)[C@H](O)[C@@H]1O)Oc1ccccc1 [RDV, remdesivir, reference compound]",CC10 Mean ± SD,VERO E6 cells; [1],4.2 ± 0.6 µM
same,CC50,in vitro,17.2 ± 0.2 µM
"CC(C)(C)[C@H](NC(=O)C(F)(F)F)C(=O)N1C[C@H]2[C@@H]([C@H]1C(=O)N[C@H](C#N)C[C@@H]1CCNC1=O)C2(C)C [NRM, nirmatrelvir, reference compound]",CC10 Mean ± SD,VERO E6 cells; [1],2.9 ± 0.2 µM
same,CC50,in vitro,40.7 ± 4 µM
sotrovimab,CC10 Mean ± SD,VERO E6 cells; mAb,>2.4 µg/mL
same,CC50 Mean ± SD,VERO E6 cells; mAb,>2.4 µg/mL
same,IC90 vs. B.1 Mean ± SD,wild type B.1 SARS-CoV-2,1.718 ± 0.594 µg/mL
cilgavimab,CC10 Mean ± SD,VERO E6 cells; mAb,>0.36 µg/mL
same,CC50 Mean ± SD,VERO E6 cells; mAb,>0.36 µg/mL
same,IC90 vs. B.1 Mean ± SD,wild type B.1 SARS-CoV-2,1.385 ± 0.862 µg/mL

# — PMC10892871 (Viruses, 2024)
